As a reminder, the GI50 is the concentration giving 50% growth inhibition.

This note sets out measurements from ChEMBL document CHEMBL1201862, “PubChem BioAssay data set” (2004).

Each structure is given as a SMILES string.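 All cell lines were grown in 96-well plates and treated with compound for 48 hours. GI50: concentration for 50% inhibition of growth.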 Active and inactive are the calls of the source. Cut-off read from the data, not from the text of the source: active = GI50 up to about 1.1 µM and inactive = higher. A value given as a limit tells only on which side of the number the result lay.

Test systems include ACHN; CCRF-CEM; HT-29; K562; KM12; LOX IMVI; M14; MCF7; NCI-H460; OVCAR-3; OVCAR-4; OVCAR-8; PC-3; RXF 393; SF-268; SK-MEL-2; SNB-19; SR; SW-620; UO-31.
What all share (test): DTP human tumour cell line panel, 48 h

As for `CC(=O)n1nc(-c2ccccc2)n(/N=C/c2ccc([N+](=O)[O-])o2)c1=O`, the GI50 in the assay with ACHN is 8.38 µM (inactive); in the assay with CCRF-CEM it was 1.6 µM (inactive); with HT-29, 3.37 µM (inactive); with K562 it was 8.83 µM (inactive); with KM12 it was 16.4 µM (inactive); with LOX IMVI, 7.74 µM (inactive). For the same compound, the GI50 in the assay on M14 is 1.94 µM (inactive); in the assay on MCF7, 2.58 µM (inactive); in the assay with NCI-H460, 7.06 µM (inactive); with OVCAR-3, 7.91 µM (inactive); in the assay with OVCAR-4, 15.1 µM (inactive); with OVCAR-8 it was 9.93 µM (inactive). Besides, the GI50 in the assay on PC-3 is 13.7 µM (inactive); with RXF 393, 5.93 µM (inactive); in the assay with SF-268, 3.08 µM (inactive); in the assay on SK-MEL-2, 6.97 µM (inactive); in the assay on SNB-19 it was 16.3 µM (inactive); in the assay on SR, 3.08 µM (inactive). Besides, the GI50 was 5.87 µM (inactive) in the assay on SW-620 and 1.77 µM (inactive) with UO-31.
With `COc1cccc2c1C(=O)c1c(O)c3c(c(O)c1C2=O)C[C@@](O)(/C(C)=N/NC(=O)c1ccccc1)C[C@@H]3OC1CC(N)C(O)C(C)O1` (stereo partly drawn), the concentration for 50% growth inhibition (GI50) in the assay with ACHN is 0.0802 µM (active); with CCRF-CEM, 0.0592 µM (active); with HT-29, 0.589 µM (active); in the assay on K562 it was 0.233 µM (active); in the assay with KM12 it was 0.392 µM (active); with LOX IMVI it was 0.0935 µM (active). For the same compound, the concentration for 50% growth inhibition (GI50) in the assay on M14 was 0.203 µM (active); with MCF7, 0.0467 µM (active); in the assay on NCI-H460 it was 0.0355 µM (active); in the assay with OVCAR-3, 0.624 µM (active); in the assay with OVCAR-4 it was 1.17 µM (inactive); with OVCAR-8, 0.283 µM (active). The concentration for 50% growth inhibition (GI50) in the assay on PC-3 was 0.171 µM (active); with RXF 393, 0.33 µM (active); in the assay on SF-268, 0.29 µM (active); with SK-MEL-2, 0.505 µM (active); with SNB-19, 0.179 µM (active); in the assay with SR it was 0.0199 µM (active). For the same compound, the GI50 was 0.136 µM (active) with SW-620 and 1.77 µM (inactive) in the assay with UO-31.
For `CC1OC(CC(=O)O)CC2=C1C(=O)c1c(O)cccc1C2=O` (stereo not drawn) [NANAOMYCIN], the concentration for 50% growth inhibition (GI50) is 0.229 µM (active) in the assay with ACHN; 0.0194 µM (active) with CCRF-CEM; 0.0624 µM (active) with HT-29; 0.022 µM (active) in the assay with K562; 1.27 µM (inactive) in the assay on KM12; 0.0421 µM (active) in the assay on LOX IMVI. Moreover, the GI50 was 0.14 µM (active) with M14; 0.142 µM (active) in the assay with MCF7; 1.74 µM (inactive) in the assay on NCI-H460; 0.0817 µM (active) in the assay with OVCAR-3; 0.274 µM (active) with OVCAR-4; 0.128 µM (active) in the assay on OVCAR-8. The GI50 in the assay with PC-3 is 0.241 µM (active); in the assay with RXF 393, 0.0242 µM (active); in the assay with SF-268, 0.316 µM (active); with SK-MEL-2, 0.331 µM (active); with SNB-19, 1.66 µM (inactive); with SR, 0.0336 µM (active). Moreover, the GI50 in the assay with SW-620 is 0.0361 µM (active); in the assay with UO-31, 0.483 µM (active).
Consider `Cc1nn(-c2ccccc2)c(C)c1/C=N/N=C1\SCC(=O)N1c1ccccc1`, for which the GI50 is 17.3 µM (inactive) with ACHN; 25 µM (inactive) in the assay with CCRF-CEM; 20.5 µM (inactive) in the assay on HT-29; 25.8 µM (inactive) in the assay on K562; 25 µM (inactive) in the assay with KM12; 22.6 µM (inactive) in the assay on LOX IMVI. Besides, the GI50 was 28.6 µM (inactive) in the assay on M14; 27.4 µM (inactive) in the assay with MCF7; 18.3 µM (inactive) in the assay on NCI-H460; 24.9 µM (inactive) with OVCAR-3; 10.6 µM (inactive) in the assay on OVCAR-4; 21.7 µM (inactive) in the assay with OVCAR-8. In addition, the GI50 in the assay on PC-3 is 19.2 µM (inactive); in the assay with RXF 393, 16.5 µM (inactive); with SF-268, 28.4 µM (inactive); in the assay on SK-MEL-2, 25.7 µM (inactive); in the assay with SNB-19, 43.1 µM (inactive); in the assay on SR it was 25.1 µM (inactive). Further, the GI50 in the assay with SW-620 is 33.9 µM (inactive); in the assay with UO-31 it was 21.5 µM (inactive).
Take `Nc1nc2cc(CNc3ccc(C(=O)O)cc3)ccc2nc1-c1ccccc1`: the GI50 in the assay on ACHN is > 100 µM (inactive); in the assay with CCRF-CEM, > 100 µM (inactive); in the assay on HT-29, > 100 µM (inactive); with K562 it was > 100 µM (inactive); in the assay with LOX IMVI, 54.2 µM (inactive); in the assay on M14, > 100 µM (inactive). In addition, the GI50 with MCF7, with NCI-H460, with OVCAR-3, in the assay with OVCAR-4, with OVCAR-8 and with PC-3 was > 100 µM (inactive) each time. Also, the GI50 in the assay on RXF 393, with SF-268, in the assay with SK-MEL-2, in the assay on SNB-19, in the assay on SR and in the assay on SW-620 was > 100 µM (inactive) in each case. Also, the GI50 with UO-31 was 86.5 µM (inactive).
Take `O=C(NNC(=O)c1c(Cl)c(Cl)c(Cl)c(Cl)c1-c1nc2ccccc2[nH]1)c1ccc(Cl)cc1`: the GI50 in the assay with ACHN was 46.9 µM (inactive); in the assay with CCRF-CEM it was 22.4 µM (inactive); in the assay with HT-29, 58.6 µM (inactive); in the assay with K562, 35.8 µM (inactive); in the assay with KM12 it was 38.1 µM (inactive); in the assay on LOX IMVI, 65.9 µM (inactive). Further, the GI50 in the assay on M14 is 35.5 µM (inactive); with MCF7, 34.9 µM (inactive); with OVCAR-3, 65.2 µM (inactive); with OVCAR-4, 50.2 µM (inactive); with OVCAR-8 it was 66.1 µM (inactive); in the assay with PC-3, 55 µM (inactive). In addition, the GI50 in the assay with RXF 393 was 43.4 µM (inactive); in the assay on SF-268, > 100 µM (inactive); in the assay with SK-MEL-2, 37.9 µM (inactive); in the assay on SNB-19, 68.5 µM (inactive); in the assay with SR, 33.8 µM (inactive); in the assay with SW-620, 50.7 µM (inactive). The GI50 with UO-31 is 30.3 µM (inactive).
In the case of `Cc1cccc2c(N)c3cccc(C(=O)NCC[N+](C)(C)Cc4sccc4[N+](=O)[O-])c3nc12`, the GI50 with ACHN is 3.78 µM (inactive); in the assay on CCRF-CEM it was > 100 µM (inactive); with HT-29 it was 3.21 µM (inactive); with K562, 3.64 µM (inactive); in the assay with KM12, 9.68 µM (inactive); in the assay on LOX IMVI it was 13.5 µM (inactive). The GI50 in the assay with M14 was 13.8 µM (inactive); in the assay with MCF7, 2.04 µM (inactive); with OVCAR-3, 19.5 µM (inactive); with OVCAR-4 it was 12.3 µM (inactive); in the assay with OVCAR-8, 9.84 µM (inactive); in the assay on PC-3 it was 11.9 µM (inactive). The GI50 is 12.9 µM (inactive) in the assay on RXF 393; 19 µM (inactive) with SF-268; 72.9 µM (inactive) in the assay on SK-MEL-2; 6.59 µM (inactive) in the assay with SNB-19; 0.398 µM (active) in the assay with SR; 5.86 µM (inactive) in the assay on SW-620. The GI50 in the assay with UO-31 was 20.5 µM (inactive).
With `O=C1/C(=C/c2ccccc2O)N=C(c2ccccc2)N1c1nc2ccccc2s1`, the GI50 is 23.7 µM (inactive) in the assay on ACHN; 25.5 µM (inactive) with CCRF-CEM; 20.9 µM (inactive) in the assay on HT-29; 7.85 µM (inactive) with K562; 7.73 µM (inactive) with KM12; 15.5 µM (inactive) in the assay on LOX IMVI. In addition, the GI50 was 17.1 µM (inactive) in the assay with M14; 3.37 µM (inactive) in the assay on MCF7; 11.2 µM (inactive) in the assay with NCI-H460; 7.43 µM (inactive) in the assay with OVCAR-3; 32.1 µM (inactive) in the assay with OVCAR-4; 23.9 µM (inactive) in the assay with OVCAR-8. Besides, the GI50 was 15.7 µM (inactive) in the assay on PC-3; 34.3 µM (inactive) in the assay with RXF 393; 20.2 µM (inactive) in the assay with SF-268; 9.18 µM (inactive) with SK-MEL-2; 2.24 µM (inactive) in the assay with SR; 11.2 µM (inactive) with SW-620. Further, the GI50 in the assay with UO-31 is 36.6 µM (inactive).
For `CC(=O)N(C(C)=O)c1ncc(-n2nc(-c3ccccc3)cc2-c2ccccc2)c(-c2ccccc2)n1`, the GI50 in the assay with ACHN is > 10 µM (inactive); with CCRF-CEM, 9.75 µM (inactive); in the assay on HT-29, 4.65 µM (inactive); in the assay on K562 it was > 10 µM (inactive); with KM12, 6.17 µM (inactive); with LOX IMVI, 6.73 µM (inactive). Also, the GI50 in the assay on M14 was > 10 µM (inactive); with MCF7 it was 5.07 µM (inactive); with NCI-H460, > 10 µM (inactive); with OVCAR-3, > 10 µM (inactive); with OVCAR-4, > 10 µM (inactive); in the assay on OVCAR-8, > 10 µM (inactive). In addition, the GI50 in the assay on PC-3 is > 10 µM (inactive); with RXF 393 it was > 10 µM (inactive); in the assay with SF-268, > 10 µM (inactive); with SK-MEL-2, > 10 µM (inactive); in the assay with SNB-19 it was > 10 µM (inactive); in the assay on SR, 3.5 µM (inactive). Moreover, the GI50 in the assay on SW-620 is > 10 µM (inactive).
Consider `CN(C)c1ccc(/N=C2/NC(=N\c3ccccc3)/C(=N/c3ccccc3)S2)cc1`, for which the GI50 was 49.1 µM (inactive) with ACHN; 97.5 µM (inactive) in the assay with CCRF-CEM; > 100 µM (inactive) in the assay on HT-29; > 100 µM (inactive) in the assay with KM12; 37.6 µM (inactive) in the assay with LOX IMVI; > 100 µM (inactive) in the assay with M14. For the same compound, the GI50 was 19.9 µM (inactive) in the assay with MCF7; > 100 µM (inactive) in the assay on NCI-H460; > 100 µM (inactive) in the assay on OVCAR-3; > 100 µM (inactive) with OVCAR-4; 66.5 µM (inactive) with OVCAR-8; > 100 µM (inactive) in the assay with PC-3. Also, the GI50 is 43.1 µM (inactive) in the assay on RXF 393; > 100 µM (inactive) in the assay with SF-268; 98.2 µM (inactive) in the assay on SK-MEL-2; 87.3 µM (inactive) in the assay with SNB-19; > 100 µM (inactive) in the assay on SR; > 100 µM (inactive) with SW-620.
